Data published in publication PMC5372988, “Bulgecin A: The Key to a Broad-Spectrum Inhibitor That Targets Lytic Transglycosylases” (Antibiotics, 2017).

Target: T1, LtgA (Neisseria meningitidis, UniProt Q9JXP1)
T1 construct: gene NMB1949; GST fusion from pGEX-4T1, GST cut by thrombin; E. coli BL21(DE3) Gold; 577 residues in model
T1 sequence (Q9JXP1 26-616): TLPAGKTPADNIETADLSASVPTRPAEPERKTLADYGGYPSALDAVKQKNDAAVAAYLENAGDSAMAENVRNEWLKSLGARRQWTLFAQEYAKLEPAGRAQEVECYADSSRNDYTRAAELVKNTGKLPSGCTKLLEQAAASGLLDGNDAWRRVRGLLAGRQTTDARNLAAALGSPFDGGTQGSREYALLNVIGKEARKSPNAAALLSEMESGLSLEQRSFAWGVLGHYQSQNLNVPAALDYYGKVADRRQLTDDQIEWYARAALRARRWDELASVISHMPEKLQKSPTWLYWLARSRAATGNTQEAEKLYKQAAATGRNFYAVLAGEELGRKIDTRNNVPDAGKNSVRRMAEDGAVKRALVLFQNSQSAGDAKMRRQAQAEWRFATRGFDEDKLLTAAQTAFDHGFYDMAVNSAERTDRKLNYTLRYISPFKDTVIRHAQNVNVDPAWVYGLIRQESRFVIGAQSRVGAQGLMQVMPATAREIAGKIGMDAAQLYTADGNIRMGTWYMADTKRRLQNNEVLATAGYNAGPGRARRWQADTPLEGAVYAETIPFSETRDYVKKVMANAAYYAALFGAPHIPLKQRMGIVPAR
Assay: RP-HPLC of muropeptides released from N. meningitidis peptidoglycan
Type: biochemical

SMILES: CC(=O)N[C@H]1[C@H](O[C@H]2C[C@@H](C(=O)NCCS(=O)(=O)O)N[C@@H]2CO)O[C@H](CO)[C@@H](OS(=O)(=O)O)[C@@H]1O [bulgecin A]
- inhibition at 90 µM: 66 ± 9.4%
